Results from patent US8791107B2, “N-substituted oxazinopteridines and oxazinopteridinones” (Takeda Pharmaceutical Company Limited, priority 2011, dated 2014).

Molecular target: T1, PI3Kδ (Homo sapiens, UniProt O00329)
T1 construct: The protein is full length and co-expressed with untagged PIK3R1; GST; purchased Invitrogen PV5274
Assay: PI3Kδ inhibition, modified PIK3CD Adapta TR-FRET assay
Assay type: biochemical
Details: recombinant GST-tagged full length PIK3CD co-expressed with PIK3R1 (p85α); 2 μM ATP, 50 μM PIP2
Protocol: The activity of compounds as PI3Kδ inhibitors may be determined by a variety of methods, including in vitro and in vivo methods. The following in vitro assay measures a test compound's ability to inhibit PI3Kδ-mediated phosphorylation of PIP2 and ATP.
Recombinant GST-tagged PIK3CD is purchased from Invitrogen (Part Number: PV5274). The protein is full length and co-expressed with untagged PIK3R1, phosphoinositide-3-kinase regulatory subunit 1 (p85α). The protein is stored at −20° C. in 50 mM TRIS (pH 7.5), 150 mM NaCl, 0.5 mM EDTA, 0.02% Triton® X-100, 2 mM DTT, and 50% glycerol.
A modified PIK3CD Adapta® assay (Invitrogen, Carlsbad, Calif.) is used to measure PI3Kδ inhibition of the example compounds. The assay has two phases. In the first phase, kinase reaction components, which include the enzyme (PIK3CD), substrates (PIP2, ATP), test compound (inhibitor), and assay buffer are added to each well, and the reaction is allowed to incubate for a pre-determined period of time. […] In the presence of the inhibitor, the amount of ADP formed by the kinase reaction is reduced, and the resulting intact antibody-tracer interaction maintains a high TR-FRET signal.
The reaction buffer contains 50 mM Hepes (pH 7.5), 3 mM MgCl2, 1 mM EGTA, 100 mM NaCl, 0.03% CHAPS; 2 mM DTT is added fresh prior to each experiment. […] Next, test compounds (2 μL) from a source plate (5% dilution plate) are introduced into the wells. The final DMSO concentration in each assay well is 1%. […] Other wells contain test compounds serially diluted across the plate 11 times for a total of 12 data points. The kinase reactions are carried out at room temperature and are initiated by the addition of 4 μL of solution containing 2 μM ATP and 50 μM PIP2. […] This emission signal is referenced or “ratioed” to the emission from Eu at 620 nm. […] The percent inhibition for a given inhibitor concentration is computed from % conversion for the reaction and for the positive and negative controls.

T1 sequence (O00329 whole entry): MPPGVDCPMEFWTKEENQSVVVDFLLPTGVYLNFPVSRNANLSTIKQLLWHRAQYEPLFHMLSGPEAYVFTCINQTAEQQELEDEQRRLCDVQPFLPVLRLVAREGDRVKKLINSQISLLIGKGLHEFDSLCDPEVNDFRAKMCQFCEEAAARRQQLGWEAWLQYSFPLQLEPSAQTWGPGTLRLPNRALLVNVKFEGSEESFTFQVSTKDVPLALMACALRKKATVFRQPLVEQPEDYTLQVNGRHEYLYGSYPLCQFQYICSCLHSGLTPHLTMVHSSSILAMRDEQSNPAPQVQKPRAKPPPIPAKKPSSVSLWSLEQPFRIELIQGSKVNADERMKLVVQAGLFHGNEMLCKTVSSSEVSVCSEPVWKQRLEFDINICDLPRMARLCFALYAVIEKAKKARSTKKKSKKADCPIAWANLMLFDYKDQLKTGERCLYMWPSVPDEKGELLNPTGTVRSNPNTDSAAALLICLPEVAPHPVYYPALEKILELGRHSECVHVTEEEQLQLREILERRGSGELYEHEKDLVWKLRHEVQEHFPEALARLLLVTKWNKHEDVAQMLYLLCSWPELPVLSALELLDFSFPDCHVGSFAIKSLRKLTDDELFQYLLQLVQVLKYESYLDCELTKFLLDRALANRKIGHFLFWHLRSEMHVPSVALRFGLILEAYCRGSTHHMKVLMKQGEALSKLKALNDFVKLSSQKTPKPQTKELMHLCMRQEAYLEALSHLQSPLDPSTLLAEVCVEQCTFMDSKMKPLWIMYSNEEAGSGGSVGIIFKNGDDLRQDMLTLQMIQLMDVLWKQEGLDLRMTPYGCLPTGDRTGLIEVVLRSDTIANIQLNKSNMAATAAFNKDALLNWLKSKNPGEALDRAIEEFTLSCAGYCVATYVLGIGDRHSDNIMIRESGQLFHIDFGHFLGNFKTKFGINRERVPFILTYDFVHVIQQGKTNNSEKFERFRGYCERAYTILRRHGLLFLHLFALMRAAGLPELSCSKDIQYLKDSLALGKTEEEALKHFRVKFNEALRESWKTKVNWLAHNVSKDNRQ
T1 sequence (P27986 whole entry partner): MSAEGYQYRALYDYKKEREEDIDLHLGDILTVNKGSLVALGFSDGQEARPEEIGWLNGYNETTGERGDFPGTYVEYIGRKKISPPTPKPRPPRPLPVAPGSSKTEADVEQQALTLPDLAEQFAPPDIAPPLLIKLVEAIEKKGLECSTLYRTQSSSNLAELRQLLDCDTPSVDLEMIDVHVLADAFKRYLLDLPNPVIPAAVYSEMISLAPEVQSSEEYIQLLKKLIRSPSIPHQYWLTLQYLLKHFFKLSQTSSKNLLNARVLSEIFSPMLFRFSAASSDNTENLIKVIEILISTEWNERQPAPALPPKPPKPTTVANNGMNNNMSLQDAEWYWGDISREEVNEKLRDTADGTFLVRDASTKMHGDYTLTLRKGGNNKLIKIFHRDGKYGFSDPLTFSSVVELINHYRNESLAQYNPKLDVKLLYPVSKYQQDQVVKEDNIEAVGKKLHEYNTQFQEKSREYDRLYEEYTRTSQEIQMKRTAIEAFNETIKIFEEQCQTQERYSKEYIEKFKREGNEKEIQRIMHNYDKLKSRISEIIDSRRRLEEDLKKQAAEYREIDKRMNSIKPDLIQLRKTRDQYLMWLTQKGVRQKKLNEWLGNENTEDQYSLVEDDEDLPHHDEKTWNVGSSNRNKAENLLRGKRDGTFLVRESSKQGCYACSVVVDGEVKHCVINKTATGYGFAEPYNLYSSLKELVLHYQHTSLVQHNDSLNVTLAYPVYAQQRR

| PI3Kδ Inhibition (pIC50) | Compound |
| --- | --- |
| 8.1 | CNC(=O)Nc1ccc(-c2ncc3c(n2)N2CCOC[C@H]2C(=O)N3[C@@H](C)c2ccc(C)cc2)cc1 (single isomer, unassigned) [Example 86] |

Same assay, conditions: recombinant GST-tagged full length PIK3CD co-expressed with PIK3R1 (p85α); 2 μM ATP, 50 μM PIP2; read-out: PI3Kδ Inhibition (pIC50) (converted)

| IC50 [nM] | Compound |
| --- | --- |
| 2.51 | CS(=O)(=O)c1ccc(CN2C(=O)C3COCCN3c3nc(-c4cncc5[nH]ccc45)ncc32)cc1 (centres unmarked) [Example 144, 5-(4-(methylsulfonyl)benzyl)-2-(1H-pyrrolo[2,3-c]pyridin-4-yl)-6a,7,9,10-tetrahydro-[1,4]oxazino[3,4-h]pteridin-6(5H)-one] |
| > 10000 | COc1ccc2c(-c3ncc4c(n3)N3CCOCC3CN4)c[nH]c2c1 (centres unmarked) [Example 8, 2-(6-methoxy-1H-indol-3-yl)-5,6,6a,7,9,10-hexahydro-[1,4]oxazino[3,4-h]pteridine] |
| 316 | c1ccc(-c2nc(CN3CC4COCCN4c4nc(-c5cccc6[nH]ccc56)ncc43)co2)cc1 (centres unmarked) [Example 37, 2-(1H-indol-4-yl)-5-((2-phenyloxazol-4-yl)methyl)-5,6,6a,7,9,10-hexahydro-[1,4]oxazino[3,4-h]pteridine] |
| 501 | CS(=O)(=O)c1ccc(CN2C(=O)C3COCCN3c3nc(-c4cccc(C(N)=O)c4)ncc32)cc1 (centres unmarked) [Example 113, 3-(5-(4-(methylsulfonyl)benzyl)-6-oxo-5,6,6a,7,9,10-hexahydro-[1,4]oxazino[3,4-h]pteridin-2-yl)benzamide] |
| 39.8 | CN(CC1CCOCC1)C(=O)CN1C[C@@H]2COCCN2c2nc(-c3cccc4[nH]ccc34)ncc21 [Example 212, (R)-2-(2-(1H-indol-4-yl)-6a,7,9,10-tetrahydro-[1,4]oxazino[3,4-h]pteridin-5(6H)-yl)-N-methyl-N-((tetrahydro-2H-pyran-4-yl)methyl)acetamide] |
| 0.794 | CNC(=O)Nc1ccc(-c2ncc3c(n2)N2CCOCC2C(=O)N3Cc2ccc(S(C)(=O)=O)cc2Cl)cc1 (centres unmarked) [Example 95, 1-(4-(5-(2-chloro-4-(methylsulfonyl)benzyl)-6-oxo-5,6,6a,7,9,10-hexahydro-[1,4]oxazino[3,4-h]pteridin-2-yl)phenyl)-3-methylurea] |
| 5.01 | CS(=O)(=O)c1ccc(CN2C[C@@H]3COCCN3c3nc(-n4c(C(F)F)nc5ccccc54)ncc32)cc1 [Example 67, (R)-2-(2-(difluoromethyl)-1H-benzo[d]imidazol-1-yl)-5-(4-(methylsulfonyl)benzyl)-5,6,6a,7,9,10-hexahydro-[1,4]oxazino[3,4-h]pteridine] |
| 794 | CC(C)(C)OC(=O)N[C@H]1CC[C@H](CN2CC3COCCN3c3nc(-c4cccc5[nH]ccc45)ncc32)CC1 (some centres unmarked) [Example 57, tert-butyl ((1r,4r)-4-((2-(1H-indol-4-yl)-6a,7,9,10-tetrahydro-[1,4]oxazino[3,4-h]pteridin-5(6H)-yl)methyl)cyclohexyl)carbamate] |
| 501 | COc1ccc2c(-c3ncc4c(n3)N3CCOCC3C(=O)N4Cc3ccc(S(C)(=O)=O)cc3)c[nH]c2c1 (centres unmarked) [Example 136, 2-(6-methoxy-1H-indol-3-yl)-5-(4-(methylsulfonyl)benzyl)-6a,7,9,10-tetrahydro-[1,4]oxazino[3,4-h]pteridin-6(5H)-one] |
| 158 | COCCNC(=O)CN1C[C@@H]2COCCN2c2nc(-c3cccc4[nH]ccc34)ncc21 [Example 204, (R)-2-(2-(1H-indol-4-yl)-6a,7,9,10-tetrahydro-[1,4]oxazino[3,4-h]pteridin-5(6H)-yl)-N-(2-methoxyethyl)acetamide] |
| 39.8 | CNC(=O)Nc1ccc(-c2ncc3c(n2)N2CCOCC2CN3CC2CC2)cc1 (centres unmarked) [Example 64, 1-(4-(5-(cyclopropylmethyl)-5,6,6a,7,9,10-hexahydro-[1,4]oxazino[3,4-h]pteridin-2-yl)phenyl)-3-methylurea] |
| 3.98 | CS(=O)(=O)c1ccc(CN2CC3COCCN3c3nc(-c4cnc(N)nc4)ncc32)cc1 (centres unmarked) [Example 4, 5-(5-(4-(methylsulfonyl)benzyl)-5,6,6a,7,9,10-hexahydro-[1,4]oxazino[3,4-h]pteridin-2-yl)pyrimidin-2-amine] |
| 3.16 | CS(=O)(=O)c1cccc(N2C[C@@H]3COCCN3c3nc(-c4cccc5[nH]ccc45)ncc32)c1 [Example 191, (R)-2-(1H-indol-4-yl)-5-(3-(methylsulfonyl)phenyl)-5,6,6a,7,9,10-hexahydro-[1,4]oxazino[3,4-h]pteridine] |
| 126 | CNC(=O)Nc1ccc(-c2ncc3c(n2)N2CCOCC2C(=O)N3[C@H](C)c2ccc(Cl)cc2)cc1 (stereo partly drawn) [Example 84, 1-(4-(5-((R)-1-(4-chlorophenyl)ethyl)-6-oxo-5,6,6a,7,9,10-hexahydro-[1,4]oxazino[3,4-h]pteridin-2-yl)phenyl)-3-methylurea] |
| 15.8 | CC(C)(O)CCCN1C[C@@H]2COCCN2c2nc(-c3cccc4[nH]ccc34)ncc21 [Example 227, (R)-5-(2-(1H-indol-4-yl)-6a,7,9,10-tetrahydro-[1,4]oxazino[3,4-h]pteridin-5(6H)-yl)-2-methylpentan-2-ol] |
| 25.1 | CCOC(=O)c1cccc(N2C[C@@H]3COCCN3c3nc(-c4cccc5[nH]ccc45)ncc32)c1 [Example 190, (R)-ethyl 3-(2-(1H-indol-4-yl)-6a,7,9,10-tetrahydro-[1,4]oxazino[3,4-h]pteridin-5(6H)-yl)benzoate] |
| 200 | O=C(Cc1cccs1)N1CC2COCCN2c2nc(-c3cccc4[nH]ccc34)ncc21 (centres unmarked) [Example 49, 1-(2-(1H-indol-4-yl)-6a,7,9,10-tetrahydro-[1,4]oxazino[3,4-h]pteridin-5(6H)-yl)-2-(thiophen-2-yl)ethanone] |
| 5.01 | O=C1Nc2cnc(-c3cccc4[nH]ccc34)nc2N2CCOC[C@@H]12 (single isomer, unassigned) [Example 150] |
| 316 | N#Cc1ccc(F)cc1CN1CC2COCCN2c2nc(-c3cccc4[nH]ccc34)ncc21 (centres unmarked) [Example 46, 2-((2-(1H-indol-4-yl)-6a,7,9,10-tetrahydro-[1,4]oxazino[3,4-h]pteridin-5(6H)-yl)methyl)-4-fluorobenzonitrile] |
| 2 | CCc1nnc(C(C)N2C[C@@H]3COCCN3c3nc(-c4cccc(CO)c4)ncc32)o1 (stereo partly drawn) [Example 177, (3-((6aR)-5-(1-(5-ethyl-1,3,4-oxadiazol-2-yl)ethyl)-5,6,6a,7,9,10-hexahydro-[1,4]oxazino[3,4-h]pteridin-2-yl)phenyl)methanol] |
| 631 | CNC(=O)Nc1ccc(-c2ncc3c(n2)N2CCOCC2CN3Cc2ccccc2)cc1 (centres unmarked) [Example 61, 1-(4-(5-benzyl-5,6,6a,7,9,10-hexahydro-[1,4]oxazino[3,4-h]pteridin-2-yl)phenyl)-3-methylurea] |
| 50.1 | CCc1nnc(CN2C[C@@H]3COCCN3c3nc(-c4cc(CO)ccc4F)ncc32)o1 [Example 179, (R)-(3-(5-((5-ethyl-1,3,4-oxadiazol-2-yl)methyl)-5,6,6a,7,9,10-hexahydro-[1,4]oxazino[3,4-h]pteridin-2-yl)-4-fluorophenyl)methanol] |
| 200 | O=C(CN1C[C@@H]2COCCN2c2nc(-c3cccc4[nH]ccc34)ncc21)NC1CCOCC1 [Example 205, (R)-2-(2-(1H-indol-4-yl)-6a,7,9,10-tetrahydro-[1,4]oxazino[3,4-h]pteridin-5(6H)-yl)-N-(tetrahydro-2H-pyran-4-yl)acetamide] |
| 794 | O=C(CN1C[C@@H]2COCCN2c2nc(-c3ccsc3)ncc21)NCC1CCOCC1 [Example 223, (R)—N-((tetrahydro-2H-pyran-4-yl)methyl)-2-(2-(thiophen-3-yl)-6a,7,9,10-tetrahydro-[1,4]oxazino[3,4-h]pteridin-5(6H)-yl)acetamide] |
| 501 | O=C(Cc1c(F)cccc1F)N1CC2COCCN2c2nc(-c3cccc4[nH]ccc34)ncc21 (centres unmarked) [Example 54] |
| 200 | O=C1Nc2cnc(-c3cccc4[nH]ccc34)nc2N2CCOC[C@H]12 (single isomer, unassigned) [Example 149] |
| 1.26 | CS(=O)(=O)c1ccc(CN2C[C@@H]3COCCN3c3nc(-c4cncc5[nH]ccc45)ncc32)cc1 [Example 30, (R)-5-(4-(methylsulfonyl)benzyl)-2-(1H-pyrrolo[2,3-c]pyridin-4-yl)-5,6,6a,7,9,10-hexahydro-[1,4]oxazino[3,4-h]pteridine] |
| > 10000 | CS(=O)(=O)c1ccc(CN2C(=O)C3COCCN3c3nc(-c4cc(N)ccn4)ncc32)cc1 (centres unmarked) [Example 141, 2-(4-aminopyridin-2-yl)-5-(4-(methylsulfonyl)benzyl)-6a,7,9,10-tetrahydro-[1,4]oxazino[3,4-h]pteridin-6(5H)-one] |
